Assay results as given in patent US12527327B2, “High hyaluronate multi-purpose disinfection solutions for ophthalmic applications” (CIS BIOPHARMA AG, priority 2019, dated 2026).

Test: XTT cytotoxicity assay according to ISO 10993
Settings: mouse
Source text: A larger scale batch (100 Liter) of Formulation E was further evaluated in more detail with an XTT test according to ISO 10993, published by the International Organization for Standardization: “Biological Evaluation of Medical Devices”, Part 1: “Evaluation and testing within a risk management process”, 2018, Part 5: “Tests for in vitro cytotoxicity”, 2009 using a valuated method from the ICCR-Roßdorf GmbH (Germany) and a Xenometrix test kit. With the XTT assay, cell proliferation and viability as well as the mitochondrial metabolic competence of the cells after treatment with a test item is determined […]. The XTT test is based on the cleavage of the yellow tetrazolium salt XTT [_(sodium 3′-(1-phenylaminocarbonyl)-(3,4-tetrazolium)-bis-(4-methoxy-6-nitro)-benzenesulfonic acid hydrate)] to form an orange water soluble formazan dye by dehydrogenase activity in active mitochondria. This method was first described 1988 by SCUDIERO et al.
In brief, the potential cytotoxic effect was evaluated with a dilution series of formulation E in complete medium [RPMI 1640 medium (including glutamax), supplemented with 10% FCS, 1 mM sodium pyruvate, and 100 units/mL penicillin, and 100 μg/mL streptomycin] resulting in the following end concentrations 39.1 μg/mL, 78.1 μg/mL, 156 μg/mL, 313 μg/mL, 625 μg/mL, 1250 μg/mL; 2500 μg/mL, 5000 μg/mL. Subsequently the effect of the solution was examined after 24±1 h treatment time on prior prepared mouse L929 cell line (supplied by DSMZ, 38124 Braunschweig, Germany). In parallel several controls were tested as well:
Medium Control=Complete medium; Solvent control=Complete medium, Positive control=Sodium dodecyl sulfate (SDS; purity: ≥99%); Solvent=deionized water, diluted with complete medium to a ratio of 1:10 (v/v). The positive control was tested in 8 concentrations in a range from 3.1-250 μg/mL. Solvent control for the positive control=Complete medium and 10% (v/v) deionized water.
At the end of the incubation period, 50 μL of the XTT labelling mixture (Xenometrix, Allschwil, Switzerland) were added to each well. The cells were incubated and subsequently transferred to a microplate reader and the absorbance values were determined (Versamax® Molecular Devices, software SoftMax Pro Enterprise (version 4.7.1)) at 450 nm (reference wavelength 690 nm). A decrease in number of living cells results in a decrease in the overall activity of mitochondrial dehydrogenases in the sample. This decrease directly correlates to the amount of orange formazan formed, as monitored by the absorbance. The relative absorbance (=viability) as compared to the solvent control is calculated using this formula: […]
To calculate the concentration of toxicant required to reduce the relative absorbance to 50% of the solvent control (XTT50) the following formula is used:
[formula] • a) Conc.>50=max. measured concentration with the % of solvent control >50% • b) Conc.<50=min. measured concentration with the % of solvent control <50% • c) %>50=relative absorbance at a) in % • d) %<50=relative absorbance at b) in %
The lower the XTT50 value, the higher is the cytotoxic potential of the test item.

## CCCCCCCCCCCCOS(=O)(=O)[O-].[Na+] [SDS, Sodium dodecyl sulfate]
  viability at 3.1 μg/mL: 96.9%
  viability at 6.3 μg/mL: 97.2%
  viability at 12.5 μg/mL: 99.9%
  viability at 25 μg/mL: 91.7%
  viability at 50 μg/mL: 85%
  viability at 100 μg/mL: 5.8%
  viability at 125 μg/mL: 1.63%
  viability at 250 μg/mL: 0.16%
